In US10076509B2, “Nested particles and the use thereof for coordinated delvery of active agents” (Board of Regents, the University of Texas System, priority 2015, dated 2018):

Key:
[1] = tested on: MCF-7 breast tumor xenografts; assay: In vivo accumulation and release of nested nanoparticles in breast tumors
Protocol: MCF-7 cells (5×10^6) were inoculated in the mammary fat pads of 4- to 6-week-old female nu/nu mice. Mice were implanted with 17β-estradiol pellets subcutaneously. Nanoparticles were administered intravenously and at predetermined timepoints, the mouse was sacrificed and the tumor harvested. Tumor tissues were frozen and sectioned into 7 μm tissue slices using an HM 550 Cryostat (Thermo Fischer Scientific, Waltham, Mass., USA). Tissues were fixed and stained with 4% methanol-free paraformaldehyde for 20 min. Following fixation, samples were washed with PBS. Slides were mounted and tissues imaged using confocal microscopy as previously described. The presence of fluorescence over time, surface intensity plots, and area fraction of the tissue sections were examined using Nikon Elements v4.1 software. For area fraction analysis, the fluorescence emitted by bodipy and rhodamine was obtained from 4 sections from different regions of the tumor (n=3). A ratiometric percentage of area fractions of both fluorophores were extracted from the total area of the image.

[2] = Finite Element modeling of release kinetics from nested nanoparticles
Text: Due to the fact that the physico-chemical properties of the core and shell, as well as bodipy and rhodamine, are different, a computational method accounting for diffusivities and molecule partitioning was used to analyze release kinetics from nested nanoparticles. Use of the model helped determine that sequential release may be achieved and controlled not only by different diffusion properties in different phases, but also partitioning. […] The model estimated experimental release curves by using partitioning coefficients of 5.0×109 and 2.2×1011 for bodipy and rhodamine, respectively (FIG. 4a). The half-time of release of the maximum releasable material was estimated to be 15 h for the shell and 46 h for the core. The diffusivity of rhodamine inside the PLGA nanoparticle matrix was estimated to be 4×10^−10 cm2/s, which was approximately 104 times lower than that in water, while that of bodipy in the shell was reduced by only 5 times compared to that in water. […] This is illustrated in the distinct phases of dominant fluxes over time (FIG. 4b).
A Finite Element (FE) method was used to model drug diffusion. The model included partitioning conditions at the surfaces, in this case between the core and the surrounding fluid. Thus, aside from the incremental-iterative system of mass balance equations (Kojic et al., 2008; Ziemys et al., 2011; Kojic et al., 2011):
the partitioning condition was included ΔNs/ΔNf=ΔCs/Δf=P Here, M and K are element mass and diffusion matrices, ΔC represents nodal concentration increments, Q^ext and Q^tnt are external and internal nodal mass fluxes; ΔNs and ΔNf are number of molecules of solid and fluid (per FE node) passing during time step Δt, and ΔCs and ΔCf are the corresponding concentration changes at boundary nodes with partitioning property; P is partitioning coefficient; and i specifies the equilibrium iteration counter. The important material parameter in the above balance equation is the diffusion coefficient D entering the diffusion matrix K:
[formula] where NI, NJ are interpolation functions and V is element volume. […]

[3] = Release kinetics from nested nanoparticles (fluorophore release, zeta potential over time); assay type: physicochemical; conditions: PBS pH 7.4, 37° C.
Protocol: FIGS. 4A-C. Examination of nested nanoparticle release kinetics. 4A. […] 4B. […] 4C.
Fluorophore release was determined according to a previously published procedure (Woodrow et al., 2009). Absorbance of bodipy and rhodamine were detected using the Synergy H4 Hybrid Reader as described above. In a separate study, nanoparticles were centrifuged at predetermined timepoints, resuspended in water, and the surface charge determined via zeta potential analysis, as described above.

[4] = Release of rapamycin and paclitaxel from nested nanoparticles; assay type: physicochemical; conditions: rapamycin in outer shell, paclitaxel in polymeric core
Text: FIG. 14. Nested nanoparticles containing both rapamycin and paclitaxel release drug in a time and sequential fashion.

[5] = model parameter; from literature for rhodamine, approximated from literature for bodipy; cited from earlier work
[6] = initial timepoints leading up to 3 h, bodipy in QAβ-CD shell, rhodamine in PLGA core

| Molecule | Area fraction of fluorophore in tumor ([1]; mouse, in vivo, iv) | Area fraction: amount of fluorophore in tumor ([1]; mouse, in vivo, iv) | Fluorophore in tumor tissue ([1]; mouse, in vivo, iv) | Reduction of diffusivity inside material compared to that in water ([2]; rhodamine in PLGA matrix, bodipy in shell) [times] | Time after which release plateaus [3] [h] | Cumulative release from nested nanoparticles ([3]; by 6 h) [%] | Cumulative release from nested nanoparticles ([3]; by 12 h) [%] | Cumulative release from nested nanoparticles [3, 6] [%] | Release from nested nanoparticles [4] | Dwater (diffusivity in water) [5] | Area fraction of fluorophore in tumor ([1]; 3 h after intravenous nested nanoparticles) | Area fraction: amount of fluorophore in tumor ([1]; 96 h after intravenous nested nanoparticles) | Time after which rhodamine flux overtook the flux of bodipy ([2]; fluxes of release from nested nanoparticles) [h] | Diffusivity inside the PLGA nanoparticle matrix ([2]; model estimate) | Cumulative release from nested nanoparticles ([3]; "by this same timepoint" (12 h or 48 h, not clear)) [%] | Cumulative release from nested nanoparticles ([3]; in 96 h) [%] |
| --- | --- | --- | --- | --- | --- | --- | --- | --- | --- | --- | --- | --- | --- | --- | --- | --- |
| O=C(COc1ccc(/C=C/C2=[N+]3C(=Cc4ccc(-c5cccs5)n4[B-]3(F)F)C=C2)cc1)NCCCCCC(=O)ON1C(=O)CCC1=O [bodipy] | ratiometrically similar amounts | decreased significantly | marked decrease | 5 | > 48 | 34 | 50 | 7 |  |  |  |  |  |  |  |  |
| CC(=O)O[C@H]1C(=O)[C@@]2(C)[C@H]([C@H](OC(=O)c3ccccc3)[C@]3(O)C[C@H](OC(=O)[C@H](O)[C@@H](NC(=O)c4ccccc4)c4ccccc4)C(C)=C1C3(C)C)[C@]1(OC(C)=O)CO[C@@H]1C[C@@H]2O [paclitaxel] |  |  |  |  |  |  |  |  | slow and prolonged release |  |  |  |  |  |  |  |
| Rhodamine |  |  |  |  |  |  |  | 3 |  | 4.10^−6 cm^2/s | ratiometrically similar amounts | increase | > 24 | 4×10^−10 cm2/s | ~6 | 34 |
